Measurements as given in the supplement of paper PMC10307832.

Columns and labels:
Assay in all cases: relative viability (nuclei count vs DMSO), 5 days (fraction); higher = more cells survive
[1] = compound: CCN1C(=O)C2=CC(=C(N=C2N(C1=O)C3CC3)N)C(=O)N + CS(=O)(=O)CCNCc1ccc(-c2ccc3ncnc(Nc4ccc(OCc5cccc(F)c5)c(Cl)c4)c3c2)o1 [Lapatinib] (partner 2 µM)
Method in brief: (§1)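 Cells from lung cancer lines were seeded into 1536-well plates and, one day later, dosed by pin tool. Treatments were either a single drug or a fixed dose of an anchor drug with five library-drug doses (not always all listed) in √10 steps. After 5 days, nuclei were stained in a one-step fixation (final 0.05% Triton X-100, 1% formaldehyde, 1 ug/ml Hoechst) and counted on 4× images, and relative viability is the treated-to-vehicle nuclei ratio, as the median of duplicate plates.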

[2] = compound: CCN1C(=O)C2=CC(=C(N=C2N(C1=O)C3CC3)N)C(=O)N + CS(=O)(=O)N1CCN(Cc2cc3nc(-c4cccc5[nH]ncc45)nc(N4CCOCC4)c3s2)CC1 [Pictilisib] (partner 1 µM)
Method in brief: as §1

[3] = compound: CCN1C(=O)C2=CC(=C(N=C2N(C1=O)C3CC3)N)C(=O)N + Cc1nc(NC(=O)N2CCC[C@H]2C(N)=O)sc1-c1ccnc(C(C)(C)C(F)(F)F)c1 [Alpelisib] (partner 2 µM)
Method in brief: as §1

[4] = compound: CCN1C(=O)C2=CC(=C(N=C2N(C1=O)C3CC3)N)C(=O)N + Cc1nc(Nc2ncc(C(=O)Nc3c(C)cccc3Cl)s2)cc(N2CCN(CCO)CC2)n1 [Dasatinib] (partner 0.075 µM)
Method in brief: as §1

[5] = compound: CCN1C(=O)C2=CC(=C(N=C2N(C1=O)C3CC3)N)C(=O)N + N=C(N)NC(=N)NCCc1ccccc1 [Phenformin] (partner 250 µM)
Method in brief: as §1

| Cell Line | relative viability ([1]; first compound 0.253 µM) | relative viability ([1]; first compound 0.8 µM) | relative viability ([1]; first compound 2.53 µM) | relative viability ([1]; first compound 8 µM) | relative viability ([2]; first compound 0.253 µM) | relative viability ([2]; first compound 0.8 µM) | relative viability ([2]; first compound 2.53 µM) | relative viability ([2]; first compound 8 µM) | relative viability ([3]; first compound 0.253 µM) | relative viability ([3]; first compound 0.8 µM) | relative viability ([3]; first compound 2.53 µM) | relative viability ([3]; first compound 8 µM) | relative viability ([4]; first compound 0.253 µM) | relative viability ([4]; first compound 0.8 µM) | relative viability ([4]; first compound 2.53 µM) | relative viability ([4]; first compound 8 µM) | relative viability ([5]; first compound 0.253 µM) | relative viability ([5]; first compound 0.8 µM) | relative viability ([5]; first compound 2.53 µM) | relative viability ([5]; first compound 8 µM) |
| --- | --- | --- | --- | --- | --- | --- | --- | --- | --- | --- | --- | --- | --- | --- | --- | --- | --- | --- | --- | --- |
| PC-3 [JPC-3] | 0.486 | 0.416 | 0.481 | 0.476 | 0.729 | 0.696 | 0.69 | 0.737 | 1.06 | 1 | 0.981 | 1.16 | 1.05 | 1.04 | 1.05 | 0.973 | 0.468 | 0.498 | 0.508 | 0.448 |
| PC-14 | 0.293 | 0.287 | 0.303 | 0.315 | 0.73 | 0.58 | 0.758 | 0.879 | 0.928 | 0.942 | 0.913 | 1.06 | 0.244 | 0.258 | 0.252 | 0.298 | 0.507 | 0.487 | 0.75 | 0.603 |
| RERF-LC-KJ | 0.897 | 0.882 | 0.909 | 0.86 | 0.488 | 0.455 | 0.508 | 0.55 | 0.792 | 0.791 | 0.763 | 0.838 | 0.76 | 0.82 | 0.676 | 0.795 | 0.424 | 0.411 | 0.392 | 0.413 |
| SK-LU-1 | 0.879 | 0.879 | 0.897 | 1.04 | 0.559 | 0.581 | 0.717 | 0.614 | 1.1 | 0.992 | 1.04 | 1.38 | 0.196 | 0.184 | 0.176 | 0.187 | 0.538 | 0.587 | 0.614 | 0.561 |
| SK-MES-1 | 0.478 | 0.485 | 0.451 | 0.492 | 0.358 | 0.403 | 0.323 | 0.37 | 0.865 | 0.917 | 0.85 | 0.962 | 0.409 | 0.393 | 0.393 | 0.448 | 0.628 | 0.687 | 0.662 | 0.642 |
| SW 1573 | 1.03 | 1.02 | 1.23 | 0.985 | 0.51 | 0.519 | 0.464 | 0.551 | 0.731 | 0.844 | 0.644 | 0.849 | 0.564 | 0.411 | 0.483 | 0.464 | 0.398 | 0.472 | 0.276 | 0.364 |
| UMC-11 | 1.12 | 0.909 | 1 | 0.9 | 0.891 | 0.865 | 0.767 | 0.853 | 1.09 | 0.942 | 0.863 | 1.07 | 0.463 | 0.434 | 0.485 | 0.496 | 0.322 | 0.319 | 0.304 | 0.293 |
